From patent US20250255848A1, “SUBSTITUTED 6,7-DIHYDRO-5H-BENZO[7]ANNULENE DERIVATIVES, PROCESSES FOR THEIR PREPARATION AND THERAPEUTIC USES THEREOF” (SANOFI, priority 2022, published 2025)

Biological target: ERα (Homo sapiens (Human), UniProt P03372)
Test: Estrogen receptor degradation activity: breast cancer cell ERα in cell western assay
Type: cell-based
Conditions: MCF7 cells; for % Degradation At 0.3 μM: 4 hours, normalised to fulvestrant 0.1 μM and DMSO
Outline: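 MCF7 cells in phenol-red-free medium with 5% charcoal-stripped FBS, treated 4 h with 9-point 1:5 dilutions (0.3-0.0000018 μM final). ERα measured by in-cell western (anti-ER antibody, Alexa 488), normalized to Syto-64 DNA stain; % decrease scaled DMSO to 0.1 μM fulvestrant, IC50 in nM.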

[1] = 4 hours post compound addition, concentration which degrades 50% of the estrogen receptor

Sequence of ERα (P03372 whole entry): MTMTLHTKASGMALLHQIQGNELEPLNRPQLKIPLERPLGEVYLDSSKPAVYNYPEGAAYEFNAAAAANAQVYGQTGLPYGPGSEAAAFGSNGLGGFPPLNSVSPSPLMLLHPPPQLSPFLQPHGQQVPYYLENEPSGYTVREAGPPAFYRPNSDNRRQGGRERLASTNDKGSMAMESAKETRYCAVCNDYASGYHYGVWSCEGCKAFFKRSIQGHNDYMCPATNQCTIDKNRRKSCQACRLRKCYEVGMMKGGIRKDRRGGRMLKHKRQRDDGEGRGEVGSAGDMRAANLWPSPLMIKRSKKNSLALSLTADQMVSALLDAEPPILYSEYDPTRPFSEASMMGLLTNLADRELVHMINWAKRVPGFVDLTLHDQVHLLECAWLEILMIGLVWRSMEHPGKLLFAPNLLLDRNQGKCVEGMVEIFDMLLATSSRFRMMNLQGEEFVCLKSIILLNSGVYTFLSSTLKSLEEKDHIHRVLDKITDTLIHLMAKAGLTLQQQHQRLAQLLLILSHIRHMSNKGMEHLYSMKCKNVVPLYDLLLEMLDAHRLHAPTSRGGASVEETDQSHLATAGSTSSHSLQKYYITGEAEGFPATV

% Degradation At 0.3 μM [%] | IC50 [1] [pM] | DC50 (4 hours post compound addition, concentration which degrades 50% of the estrogen receptor, read-out: Degradation IC50) [pM] | SMILES
100 | 400 |  | O=C(O)c1ccc2c(c1)CCCC(c1cccc(C(F)(F)F)c1C(F)(F)F)=C2c1ccc(C=C2CN(CCCF)C2)cc1 [Compound 79, 8-(2,3-bis(trifluoromethyl)phenyl)-9-(4-((1-(3-fluoropropyl)azetidin-3-ylidene)methyl)phenyl)-6,7-dihydro-5H-benzo[7]annulene-3-carboxylic acid]
81 |  | 1800 | O=C(O)c1ccc2c(c1)CCCC(c1ccc(Cl)cc1Cl)=C2c1ccc(C=C2CN(CC(F)CF)C2)cc1 (single isomer, unassigned) [Compound 70, 8-(2,4-dichlorophenyl)-9-(4-((1-(2,3-difluoropropyl)azetidin-3-ylidene)methyl)phenyl)-6,7-dihydro-5H-benzo[7]annulene-3-carboxylic acid]
92 | 400 |  | Cc1cc(C)c(C2=C(c3ccc(C=C4CN(CCCF)C4)cc3)c3ccc(C(=O)O)cc3CCC2)c(Cl)c1 [Compound 11, 8-(2-chloro-4,6-dimethylphenyl)-9-(4-((1-(3-fluoropropyl)azetidin-3-ylidene)methyl)phenyl)-6,7-dihydro-5H-benzo[7]annulene-3-carboxylic acid]
91 | 500 |  | COc1c(F)cccc1C1=C(c2ccc(C=C3CN(CCCF)C3)cc2)c2ccc(C(=O)O)cc2CCC1 [Compound 40, 8-(3-fluoro-2-methoxyphenyl)-9-(4-((1-(3-fluoropropyl)azetidin-3-ylidene)methyl)phenyl)-6,7-dihydro-5H-benzo[7]annulene-3-carboxylic acid]
105 | 1200 |  | CCc1cc(C)cc(CC)c1C1=C(c2ccc(C=C3CN(CCCF)C3)cc2)c2ccc(C(=O)O)cc2CCC1 [Compound 80, 8-(2,6-diethyl-4-methylphenyl)-9-(4-((1-(3-fluoropropyl)azetidin-3-ylidene)methyl)phenyl)-6,7-dihydro-5H-benzo[7]annulene-3-carboxylic acid]
94 | 500 |  | COc1c(F)ccc(C)c1C1=C(c2ccc(C=C3CN(CCCF)C3)cc2)c2ccc(C(=O)O)cc2CCC1 [Compound 7, 8-(3-fluoro-2-methoxy-6-methylphenyl)-9-(4-((1-(3-fluoropropyl)azetidin-3-ylidene)methyl)phenyl)-6,7-dihydro-5H-benzo[7]annulene-3-carboxylic acid]
93 | 700 |  | Cc1ccc(C(F)F)c(C2=C(c3ccc(C=C4CN(CCCF)C4)cc3)c3ccc(C(=O)O)cc3CCC2)c1 [Compound 57, 8-(2-(difluoromethyl)-5-methylphenyl)-9-(4-((1-(3-fluoropropyl)azetidin-3-ylidene)methyl)phenyl)-6,7-dihydro-5H-benzo[7]annulene-3-carboxylic acid]
91 | 300 |  | O=C(O)c1ccc2c(c1)CCCC(c1ccccc1CF)=C2c1ccc(C=C2CN(CCCF)C2)cc1 [Compound 32, 8-(2-(fluoromethyl)phenyl)-9-(4-((1-(3-fluoropropyl)azetidin-3-ylidene)methyl)phenyl)-6,7-dihydro-5H-benzo[7]annulene-3-carboxylic acid]
94 | 500 |  | Cc1cc(C2=C(c3ccc(C=C4CN(CCCF)C4)cc3)c3ccc(C(=O)O)cc3CCC2)ccc1C(F)F [Compound 28, 8-(4-(difluoromethyl)-3-methylphenyl)-9-(4-((1-(3-fluoropropyl)azetidin-3-ylidene)methyl)phenyl)-6,7-dihydro-5H-benzo[7]annulene-3-carboxylic acid]
92 | 500 |  | O=C(O)c1ccc2c(c1)CCCC(c1ccc(C(F)F)cc1C(F)(F)F)=C2c1ccc(C=C2CN(CCCF)C2)cc1 [Compound 51, 8-(4-(difluoromethyl)-2-(trifluoromethyl)phenyl)-9-(4-((1-(3-fluoropropyl)azetidin-3-ylidene)methyl)phenyl)-6,7-dihydro-5H-benzo[7]annulene-3-carboxylic acid]
90 | 400 |  | O=C(O)c1ccc2c(c1)CCCC(c1cccc(F)c1CF)=C2c1ccc(C=C2CN(CCCF)C2)cc1 [Compound 38, 8-(3-fluoro-2-(fluoromethyl)phenyl)-9-(4-((1-(3-fluoropropyl)azetidin-3-ylidene)methyl)phenyl)-6,7-dihydro-5H-benzo[7]annulene-3-carboxylic acid]
100 | 300 |  | Cc1cc(C)c(C2=C(c3ccc(C=C4CN(CCCF)C4)cc3)c3ccc(C(=O)O)cc3CCC2)c(C(F)(F)F)c1 [Compound 72, 8-(2,4-dimethyl-6-(trifluoromethyl)phenyl)-9-(4-((1-(3-fluoropropyl)azetidin-3-ylidene)methyl)phenyl)-6,7-dihydro-5H-benzo[7]annulene-3-carboxylic acid]
91 | 300 |  | COc1cccc(C(F)(F)F)c1C1=C(c2ccc(C=C3CN(CCCF)C3)cc2)c2ccc(C(=O)O)cc2CCC1 [Compound 6, 9-(4-((1-(3-fluoropropyl)azetidin-3-ylidene)methyl)phenyl)-8-(2-methoxy-6-(trifluoromethyl)phenyl)-6,7-dihydro-5H-benzo[7]annulene-3-carboxylic acid]
93 | 500 |  | Cc1cc(C(F)F)ccc1C1=C(c2ccc(C=C3CN(CCCF)C3)cc2)c2ccc(C(=O)O)cc2CCC1 [Compound 44, 8-(4-(difluoromethyl)-2-methylphenyl)-9-(4-((1-(3-fluoropropyl)azetidin-3-ylidene)methyl)phenyl)-6,7-dihydro-5H-benzo[7]annulene-3-carboxylic acid]
91 | 400 |  | COc1cccc(Cl)c1C1=C(c2ccc(C=C3CN(CCCF)C3)cc2)c2ccc(C(=O)O)cc2CCC1 [Compound 23, 8-(2-chloro-6-methoxyphenyl)-9-(4-((1-(3-fluoropropyl)azetidin-3-ylidene)methyl)phenyl)-6,7-dihydro-5H-benzo[7]annulene-3-carboxylic acid]
91 | 600 |  | COc1cc(C)c(C2=C(c3ccc(C=C4CN(CCCF)C4)cc3)c3ccc(C(=O)O)cc3CCC2)c(C)c1 [Compound 18, 9-(4-((1-(3-fluoropropyl)azetidin-3-ylidene)methyl)phenyl)-8-(4-methoxy-2,6-dimethylphenyl)-6,7-dihydro-5H-benzo[7]annulene-3-carboxylic acid]
91 | 600 |  | Cc1ccc(C(F)(F)F)c(C)c1C1=C(c2ccc(C=C3CN(CCCF)C3)cc2)c2ccc(C(=O)O)cc2CCC1 [Compound 84, 8-(2,6-dimethyl-3-(trifluoromethyl)phenyl)-9-(4-((1-(3-fluoropropyl)azetidin-3-ylidene)methyl)phenyl)-6,7-dihydro-5H-benzo[7]annulene-3-carboxylic acid]
95 | 500 |  | COc1cc(C(F)(F)F)cc(C(F)(F)F)c1C1=C(c2ccc(C=C3CN(CCCF)C3)cc2)c2ccc(C(=O)O)cc2CCC1 [Compound 71, 9-(4-((1-(3-fluoropropyl)azetidin-3-ylidene)methyl)phenyl)-8-(2-methoxy-4,6-bis(trifluoromethyl)phenyl)-6,7-dihydro-5H-benzo[7]annulene-3-carboxylic acid]
91 | 500 |  | Cc1c(OC(F)(F)F)cccc1C1=C(c2ccc(C=C3CN(CCCF)C3)cc2)c2ccc(C(=O)O)cc2CCC1 [Compound 24, 9-(4-((1-(3-fluoropropyl)azetidin-3-ylidene)methyl)phenyl)-8-(2-methyl-3-(trifluoromethoxy)phenyl)-6,7-dihydro-5H-benzo[7]annulene-3-carboxylic acid]
95 | 200 |  | Cc1cc(C)c(C2=C(c3ccc(C=C4CN(CCCF)C4)cc3)c3ccc(C(=O)O)cc3CCC2)c(F)c1 [Compound 76, 8-(2-fluoro-4,6-dimethylphenyl)-9-(4-((1-(3-fluoropropyl)azetidin-3-ylidene)methyl)phenyl)-6,7-dihydro-5H-benzo[7]annulene-3-carboxylic acid]
86 | 1700 |  | CC1(C)CCC(C2=C(c3ncc(C=C4CN(CCC(F)F)C4)cc3F)c3ccc(C(=O)O)cc3CCC2)CC1 [Compound 66, 9-(5-((1-(3,3-difluoropropyl)azetidin-3-ylidene)methyl)-3-fluoropyridin-2-yl)-8-(4,4-dimethylcyclohexyl)-6,7-dihydro-5H-benzo[7]annulene-3-carboxylic acid]
94 | 900 |  | O=C(O)c1ccc2c(c1)CCCC(c1ccc(C(F)(F)F)cc1C1CC1)=C2c1ccc(C=C2CN(CCCF)C2)cc1 [Compound 48, 8-(2-cyclopropyl-4-(trifluoromethyl)phenyl)-9-(4-((1-(3-fluoropropyl)azetidin-3-ylidene)methyl)phenyl)-6,7-dihydro-5H-benzo[7]annulene-3-carboxylic acid]
90 | 1000 |  | O=C(O)c1ccc2c(c1)CCCC(c1cccc3c1OCCC3)=C2c1ccc(C=C2CN(CCCF)C2)cc1 [Compound 67, 8-(chroman-8-yl)-9-(4-((1-(3-fluoropropyl)azetidin-3-ylidene)methyl)phenyl)-6,7-dihydro-5H-benzo[7]annulene-3-carboxylic acid]
96 | 3100 |  | O=C(O)c1ccc2c(c1)CCCC(c1cccc3c1CCCO3)=C2c1ccc(C=C2CN(CCCF)C2)cc1 [Compound 64, 8-(chroman-5-yl)-9-(4-((1-(3-fluoropropyl)azetidin-3-ylidene)methyl)phenyl)-6,7-dihydro-5H-benzo[7]annulene-3-carboxylic acid]
